Results on 18 compounds are retold here after patent publication US10494332B2, “Protein tyrosine phosphatases or SHP2 inhibitors and uses thereof” (Indiana University Research and Technology Corporation, priority 2015, dated 2019).

pIC50: −log10 of the molar value. “And” between values parts separate entries of the source, which are not always exact repeats. Identical values can stand only once. A value given as a limit tells only on which side of the number the result lay.

Common to all, as to experiment: PTP inhibition assay (pNPP)
Type in all cases: biochemical

The target in assay [1] is T1, LMWPTP (Homo sapiens, UniProt P24666).
T1 sequence (P24666 1-158): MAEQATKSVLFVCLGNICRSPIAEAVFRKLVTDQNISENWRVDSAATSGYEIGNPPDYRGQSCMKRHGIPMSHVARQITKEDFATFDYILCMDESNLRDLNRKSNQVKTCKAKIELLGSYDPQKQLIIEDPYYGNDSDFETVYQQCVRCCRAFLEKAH

Assay [2] concerns the target T2, PTP1B (Homo sapiens, UniProt P18031).
T2 sequence (P18031 1-435): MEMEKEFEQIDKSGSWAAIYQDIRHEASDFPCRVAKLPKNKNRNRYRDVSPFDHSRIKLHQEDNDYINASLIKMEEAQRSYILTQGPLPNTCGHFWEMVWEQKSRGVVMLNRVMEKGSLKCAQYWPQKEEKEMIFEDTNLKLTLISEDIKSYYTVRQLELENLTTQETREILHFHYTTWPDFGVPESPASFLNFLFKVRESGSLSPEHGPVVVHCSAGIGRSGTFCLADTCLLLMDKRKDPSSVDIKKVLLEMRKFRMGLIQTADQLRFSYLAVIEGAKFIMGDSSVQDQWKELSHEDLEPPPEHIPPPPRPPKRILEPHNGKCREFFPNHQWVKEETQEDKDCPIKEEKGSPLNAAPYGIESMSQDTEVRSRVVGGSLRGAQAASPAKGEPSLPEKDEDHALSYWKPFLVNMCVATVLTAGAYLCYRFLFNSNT
As to conditions: pNPP at Km, pH 7.0, 25° C.

Assay [3] has as its target T3, LYP (Homo sapiens, UniProt Q9Y2R2).
T3 sequence (Q9Y2R2 1-807): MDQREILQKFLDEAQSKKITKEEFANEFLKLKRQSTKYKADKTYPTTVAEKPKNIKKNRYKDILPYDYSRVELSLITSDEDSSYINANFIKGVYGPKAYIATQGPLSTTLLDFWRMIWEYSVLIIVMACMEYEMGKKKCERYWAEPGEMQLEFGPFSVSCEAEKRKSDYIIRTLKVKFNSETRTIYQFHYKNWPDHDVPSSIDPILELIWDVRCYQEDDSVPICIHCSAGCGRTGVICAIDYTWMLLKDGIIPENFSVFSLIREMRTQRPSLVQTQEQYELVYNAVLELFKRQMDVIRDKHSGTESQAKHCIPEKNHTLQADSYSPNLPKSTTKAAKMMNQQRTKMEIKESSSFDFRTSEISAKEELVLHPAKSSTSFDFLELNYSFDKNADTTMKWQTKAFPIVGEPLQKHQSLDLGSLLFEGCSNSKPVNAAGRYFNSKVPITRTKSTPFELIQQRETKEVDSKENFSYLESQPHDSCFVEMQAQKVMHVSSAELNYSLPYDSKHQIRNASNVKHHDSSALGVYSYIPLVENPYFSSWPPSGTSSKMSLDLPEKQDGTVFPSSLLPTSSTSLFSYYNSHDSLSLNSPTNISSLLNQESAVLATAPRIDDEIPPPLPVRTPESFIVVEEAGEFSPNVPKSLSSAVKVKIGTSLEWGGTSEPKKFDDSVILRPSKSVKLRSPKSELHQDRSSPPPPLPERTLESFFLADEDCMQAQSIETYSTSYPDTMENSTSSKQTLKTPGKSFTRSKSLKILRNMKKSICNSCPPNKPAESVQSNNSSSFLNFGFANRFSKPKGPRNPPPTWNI
As to conditions: pNPP at Km, pH 7.0, 25° C.

In assay [4] the target is T4, CD45 (Homo sapiens, UniProt P08575).
T4 sequence (P08575 26-1306): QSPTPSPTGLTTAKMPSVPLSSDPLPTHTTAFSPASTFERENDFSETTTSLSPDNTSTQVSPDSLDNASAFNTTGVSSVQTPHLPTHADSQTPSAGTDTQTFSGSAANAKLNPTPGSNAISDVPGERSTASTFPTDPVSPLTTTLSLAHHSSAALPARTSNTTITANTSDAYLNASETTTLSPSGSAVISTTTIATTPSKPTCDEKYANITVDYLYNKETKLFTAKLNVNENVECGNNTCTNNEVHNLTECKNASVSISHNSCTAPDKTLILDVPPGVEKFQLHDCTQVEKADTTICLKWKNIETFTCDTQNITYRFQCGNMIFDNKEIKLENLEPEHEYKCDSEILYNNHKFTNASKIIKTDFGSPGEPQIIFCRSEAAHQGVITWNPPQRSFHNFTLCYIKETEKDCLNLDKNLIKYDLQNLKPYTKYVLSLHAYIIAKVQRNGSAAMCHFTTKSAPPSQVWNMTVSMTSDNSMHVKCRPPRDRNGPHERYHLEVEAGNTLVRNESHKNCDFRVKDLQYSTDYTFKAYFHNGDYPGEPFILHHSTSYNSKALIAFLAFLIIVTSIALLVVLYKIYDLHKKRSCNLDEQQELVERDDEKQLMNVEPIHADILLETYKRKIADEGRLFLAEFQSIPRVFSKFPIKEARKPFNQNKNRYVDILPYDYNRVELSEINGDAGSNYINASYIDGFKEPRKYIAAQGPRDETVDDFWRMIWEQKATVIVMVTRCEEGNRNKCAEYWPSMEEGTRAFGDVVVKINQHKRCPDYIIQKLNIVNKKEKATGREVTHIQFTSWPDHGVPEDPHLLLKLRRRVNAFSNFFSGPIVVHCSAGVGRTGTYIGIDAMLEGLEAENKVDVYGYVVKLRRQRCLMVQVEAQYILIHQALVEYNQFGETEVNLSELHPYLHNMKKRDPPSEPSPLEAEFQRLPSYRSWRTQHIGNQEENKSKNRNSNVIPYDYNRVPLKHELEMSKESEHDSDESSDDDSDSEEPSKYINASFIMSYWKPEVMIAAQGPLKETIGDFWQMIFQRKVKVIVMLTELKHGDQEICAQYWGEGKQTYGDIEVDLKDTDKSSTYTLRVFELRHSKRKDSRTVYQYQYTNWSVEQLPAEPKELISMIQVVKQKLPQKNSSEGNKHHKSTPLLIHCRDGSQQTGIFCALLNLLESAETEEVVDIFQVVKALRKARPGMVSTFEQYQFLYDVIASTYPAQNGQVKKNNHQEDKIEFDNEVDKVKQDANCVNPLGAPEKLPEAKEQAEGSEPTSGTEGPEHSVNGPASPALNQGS
As to conditions: pNPP at Km, pH 7.0, 25° C.

Assay [5] concerns the target LAR (Homo sapiens, UniProt P10586).
Assay [6] has as its target PTPβ (Homo sapiens, UniProt P23467).
In assay [7] the target is PTPγ (Homo sapiens, UniProt P23470).
Chain of PTPγ (P23470 20-1445): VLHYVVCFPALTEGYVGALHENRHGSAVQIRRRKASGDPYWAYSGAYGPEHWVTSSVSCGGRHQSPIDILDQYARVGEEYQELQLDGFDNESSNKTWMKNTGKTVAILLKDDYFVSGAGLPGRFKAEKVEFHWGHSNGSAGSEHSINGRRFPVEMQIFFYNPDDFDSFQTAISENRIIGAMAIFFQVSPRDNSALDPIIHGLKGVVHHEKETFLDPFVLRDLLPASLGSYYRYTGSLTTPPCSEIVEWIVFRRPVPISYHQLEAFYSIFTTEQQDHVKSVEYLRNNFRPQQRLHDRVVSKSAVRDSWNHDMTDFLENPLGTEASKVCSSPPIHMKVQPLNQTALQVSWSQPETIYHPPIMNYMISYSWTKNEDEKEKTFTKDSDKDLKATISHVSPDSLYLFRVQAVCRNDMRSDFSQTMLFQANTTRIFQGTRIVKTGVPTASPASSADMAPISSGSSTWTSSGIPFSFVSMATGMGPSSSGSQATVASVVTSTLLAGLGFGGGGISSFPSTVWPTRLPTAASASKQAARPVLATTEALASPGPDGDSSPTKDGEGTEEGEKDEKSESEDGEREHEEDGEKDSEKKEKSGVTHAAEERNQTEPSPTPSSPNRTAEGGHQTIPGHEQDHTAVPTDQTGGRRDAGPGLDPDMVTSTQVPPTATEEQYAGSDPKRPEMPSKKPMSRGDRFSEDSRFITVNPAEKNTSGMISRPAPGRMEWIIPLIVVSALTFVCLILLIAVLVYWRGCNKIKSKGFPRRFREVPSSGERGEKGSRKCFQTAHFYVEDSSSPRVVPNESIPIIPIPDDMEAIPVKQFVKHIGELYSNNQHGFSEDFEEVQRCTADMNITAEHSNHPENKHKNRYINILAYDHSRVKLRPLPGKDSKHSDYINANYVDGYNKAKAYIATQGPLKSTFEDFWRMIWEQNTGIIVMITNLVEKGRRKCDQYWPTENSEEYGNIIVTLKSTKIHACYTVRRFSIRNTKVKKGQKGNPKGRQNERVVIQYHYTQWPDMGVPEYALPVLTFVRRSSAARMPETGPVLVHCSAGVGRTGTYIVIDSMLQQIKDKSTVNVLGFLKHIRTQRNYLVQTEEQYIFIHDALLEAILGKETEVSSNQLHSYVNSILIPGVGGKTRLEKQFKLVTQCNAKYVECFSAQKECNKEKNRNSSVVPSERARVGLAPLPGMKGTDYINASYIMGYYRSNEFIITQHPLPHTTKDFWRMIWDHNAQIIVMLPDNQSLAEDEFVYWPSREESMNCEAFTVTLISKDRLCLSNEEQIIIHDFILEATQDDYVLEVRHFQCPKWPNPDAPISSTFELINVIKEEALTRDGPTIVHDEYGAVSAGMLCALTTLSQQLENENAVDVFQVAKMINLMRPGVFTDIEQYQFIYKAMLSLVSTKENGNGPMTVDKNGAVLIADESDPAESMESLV

Chain of LAR (P10586 30-1907): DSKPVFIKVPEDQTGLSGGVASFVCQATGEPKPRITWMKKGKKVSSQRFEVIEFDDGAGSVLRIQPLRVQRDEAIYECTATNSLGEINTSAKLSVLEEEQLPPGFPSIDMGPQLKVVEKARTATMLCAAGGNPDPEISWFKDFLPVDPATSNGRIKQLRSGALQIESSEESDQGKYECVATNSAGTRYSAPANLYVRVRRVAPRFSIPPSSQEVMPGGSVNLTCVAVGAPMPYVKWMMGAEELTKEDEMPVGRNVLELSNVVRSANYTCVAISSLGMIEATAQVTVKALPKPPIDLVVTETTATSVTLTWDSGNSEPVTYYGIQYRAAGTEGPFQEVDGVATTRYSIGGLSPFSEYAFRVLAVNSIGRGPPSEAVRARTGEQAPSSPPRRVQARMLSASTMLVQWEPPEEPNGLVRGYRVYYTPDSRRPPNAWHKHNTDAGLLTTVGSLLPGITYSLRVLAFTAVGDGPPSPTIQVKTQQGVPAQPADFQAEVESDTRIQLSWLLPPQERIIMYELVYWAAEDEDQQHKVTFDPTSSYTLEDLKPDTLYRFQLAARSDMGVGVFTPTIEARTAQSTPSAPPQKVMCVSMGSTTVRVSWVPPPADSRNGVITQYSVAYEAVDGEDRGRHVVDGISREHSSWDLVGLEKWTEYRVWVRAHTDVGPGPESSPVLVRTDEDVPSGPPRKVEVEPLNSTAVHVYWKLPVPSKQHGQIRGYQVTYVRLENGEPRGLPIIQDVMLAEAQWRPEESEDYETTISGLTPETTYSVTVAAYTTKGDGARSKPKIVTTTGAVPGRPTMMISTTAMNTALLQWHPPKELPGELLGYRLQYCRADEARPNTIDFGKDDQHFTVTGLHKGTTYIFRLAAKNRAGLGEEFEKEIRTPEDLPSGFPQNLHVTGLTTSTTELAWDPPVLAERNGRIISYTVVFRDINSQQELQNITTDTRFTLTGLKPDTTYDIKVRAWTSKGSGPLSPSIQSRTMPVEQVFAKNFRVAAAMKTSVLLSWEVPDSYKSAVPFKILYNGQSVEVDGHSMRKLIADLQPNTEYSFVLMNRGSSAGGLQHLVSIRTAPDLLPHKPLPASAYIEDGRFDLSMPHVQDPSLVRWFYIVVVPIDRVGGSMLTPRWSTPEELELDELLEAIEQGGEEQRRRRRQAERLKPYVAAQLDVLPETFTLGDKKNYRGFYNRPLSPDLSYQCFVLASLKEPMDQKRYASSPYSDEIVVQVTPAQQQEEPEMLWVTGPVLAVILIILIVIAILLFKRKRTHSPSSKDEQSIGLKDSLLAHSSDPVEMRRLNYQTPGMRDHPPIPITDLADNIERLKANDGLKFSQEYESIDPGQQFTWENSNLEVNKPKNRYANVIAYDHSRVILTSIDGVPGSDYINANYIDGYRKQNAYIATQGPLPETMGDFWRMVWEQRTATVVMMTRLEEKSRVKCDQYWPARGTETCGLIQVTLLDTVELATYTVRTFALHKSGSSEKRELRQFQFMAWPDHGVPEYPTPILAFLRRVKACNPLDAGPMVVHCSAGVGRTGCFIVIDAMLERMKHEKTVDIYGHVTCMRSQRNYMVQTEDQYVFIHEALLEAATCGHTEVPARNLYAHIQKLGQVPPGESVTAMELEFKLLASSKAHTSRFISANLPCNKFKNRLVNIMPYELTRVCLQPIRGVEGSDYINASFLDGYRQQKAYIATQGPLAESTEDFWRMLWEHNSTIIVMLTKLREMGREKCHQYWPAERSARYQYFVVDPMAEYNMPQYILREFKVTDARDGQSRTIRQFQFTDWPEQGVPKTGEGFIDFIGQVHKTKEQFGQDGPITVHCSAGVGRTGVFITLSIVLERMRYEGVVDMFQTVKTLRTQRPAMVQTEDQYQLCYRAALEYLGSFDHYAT

The pIC50 is the IC50 on a negative log10 scale, so that one unit is a factor of ten. A lower pIC50 goes with a large IC50. As to `Cc1c(Br)cc(NC(=O)CS(=O)(=O)O)cc1Br`, the pIC50 in assay [1] (pNPP at Km, pH 7.0, 25° C.) is 5.38; in assay [2], less than 4.00; in assay [3] it was less than 4.00; in assay [4], less than 4.00; in assay [5] it was less than 4.00; in assay [6] it was less than 4.00. This compound also showed a pIC50 in assay [7] of less than 4.00.

As for `O=C(CS(=O)(=O)O)Nc1ccc2nc(C(F)(F)F)[nH]c2c1`, the pIC50 in assay [1] (pNPP at Km, pH 7.0, 25° C.) was 5.73; in assay [2], less than 4.00; in assay [3], less than 4.00; in assay [4], less than 4.00; in assay [5], less than 4.00; in assay [6], less than 4.00. In addition, the pIC50 in assay [7] is less than 4.00.

In the case of `O=C(CS(=O)(=O)O)Nc1cnc2ccccc2c1`, the pIC50 in assay [1] (pNPP at Km, pH 7.0, 25° C.) was 4.92; in assay [2], less than 4.00; in assay [3], less than 4.00; in assay [4], less than 4.00; in assay [5] it was less than 4.00; in assay [6], less than 4.00. In assay [7], the pIC50 was less than 4.00.

On to `O=C(NCCNC(=O)C(c1ccccc1)S(=O)(=O)O)c1cccc(C(=O)c2ccccc2)c1` (centres unmarked) [Compound L319-02-A60], for which the pIC50 in assay [1] (pNPP at Km, pH 7.0, 25° C.) was less than 3.70; in assay [2], less than 3.70; in assay [3], less than 3.70.

With `O=C(NCc1ccc(NC(=O)C(c2ccccc2)S(=O)(=O)O)cc1)c1ccccc1-c1ccc(C(F)(F)F)cc1` (centres unmarked) [Compound L319-05-A64], the pIC50 in assay [1] (pNPP at Km, pH 7.0, 25° C.) was 4.54; in assay [2], 3.74; in assay [3] it was 4.21.

`CCCCc1ccc(NC(=O)C(=O)Nc2ccccc2NC(=O)C(c2ccccc2)S(=O)(=O)O)cc1` (centres unmarked) [Compound L319-21-M06]: the negative logarithm of the IC50 (pIC50) is less than 4.30 in assay [1] (pNPP at Km, pH 7.0, 25° C.); less than 4.30 in assay [2]; less than 4.30 in assay [3].

Turning to `O=C(Nc1cccc(OCc2ccccc2)c1)C(=O)Nc1ccccc1NC(=O)C(c1ccccc1)S(=O)(=O)O` (centres unmarked) [Compound L319-21-M52], the pIC50 in assay [1] (pNPP at Km, pH 7.0, 25° C.) was less than 4.30; in assay [2], less than 4.30; in assay [3], less than 4.30.

In the case of `Cc1c(Br)cc(NC(=O)C(c2ccccc2)S(=O)(=O)O)cc1Br` (centres unmarked) [Compound L319M34], the pIC50 in assay [1] (pH 7) was 5.28; in assay [1] (pNPP at Km, pH 7.0, 25° C.) it was 5.35.

Consider `O=C(Nc1ccc(OCc2ccccc2)c(Cl)c1)C(c1ccccc1)S(=O)(=O)O` (centres unmarked) [Compound L319M50], for which the pIC50 in assay [1] (pH 7) is 4.92; in assay [2], less than 3.70; in assay [3], less than 3.70.

Turning to `O=C(Nc1cccc(OCc2ccccc2)c1)C(c1ccccc1)S(=O)(=O)O` (centres unmarked) [Compound L319M52], the pIC50 in assay [1] (pNPP at Km, pH 7.0, 25° C.) was 4.14; in assay [2], less than 3.70; in assay [3], less than 3.70; in assay [4], less than 3.70; in assay [5], less than 3.70; in assay [6] it was less than 3.70. Further, the pIC50 in assay [7] is less than 3.70.

In the case of `O=C(Nc1ccc2nc(C(F)(F)F)[nH]c2c1)C(c1ccccc1)S(=O)(=O)O` (centres unmarked) [Compound L319M54], the pIC50 was 5.25 in assay [1] (pH 7); 5.10 and 5.30 in assay [1] (pNPP at Km, pH 7.0, 25° C.); less than 3.70 in assay [2]; less than 3.70 in assay [3]; less than 3.70 in assay [4]; less than 3.70 in assay [5]. In addition, the pIC50 in assay [6] and in assay [7] was less than 3.70 throughout.

For the compound `O=C(Nc1ccc(N2CCOCC2)cc1)C(c1ccccc1)S(=O)(=O)O` (centres unmarked) [Compound L319M68], the pIC50 is 5.09 in assay [1] (pH 7); 4.70 in assay [1] (pNPP at Km, pH 7.0, 25° C.); less than 3.70 in assay [2]; less than 3.70 in assay [3]; less than 3.70 in assay [4]; less than 3.70 in assay [5]. The pIC50 in assay [6] and in assay [7] was less than 3.70 throughout.

As to `O=C(Nc1cnc2ccccc2c1)C(c1ccccc1)S(=O)(=O)O` (centres unmarked) [Compound L319M88], the pIC50 in assay [1] (pH 7) is 5.14; in assay [1] (pNPP at Km, pH 7.0, 25° C.) it was 5.21; in assay [2], less than 3.70; in assay [3], less than 3.70; in assay [4], less than 3.70; in assay [5] it was less than 3.70. The pIC50 in assay [6] and in assay [7] was less than 3.70 each time.

For the compound `O=C(Nc1ccc(-c2ccccc2)cc1)C(c1ccccc1)S(=O)(=O)O` (centres unmarked) [Compound L319N08], the pIC50 in assay [1] (pNPP at Km, pH 7.0, 25° C.) is 4.54; in assay [2], less than 3.70; in assay [3], less than 3.70.

Regarding `O=C(Nc1nc2ccccc2s1)C(c1ccccc1)S(=O)(=O)O` (centres unmarked) [Compound L319N15], the pIC50 was 5.15 in assay [1] (pH 7); 5.13 and 5.07 in assay [1] (pNPP at Km, pH 7.0, 25° C.); less than 3.70 in assay [2]; < 3.70 and 3.72 in assay [3]; < 3.70 and 3.74 in assay [4]; less than 3.70 in assay [5]. The pIC50 in assay [6] and in assay [7] was less than 3.70 in each case.

Take `O=C(C(c1ccccc1)S(=O)(=O)O)N1CCC(Cc2ccccc2)CC1` (centres unmarked) [Compound L319N46]: the pIC50 in assay [1] (pNPP at Km, pH 7.0, 25° C.) is less than 3.70; in assay [2] it was less than 3.70; in assay [3], less than 3.70; in assay [4] it was less than 3.70; in assay [5], less than 3.70; in assay [6], less than 3.70. The same compound had a pIC50 in assay [7] of less than 3.70.

Take `O=C(C(c1ccccc1)S(=O)(=O)O)N1CCC(c2ccc(Cl)c(Cl)c2)CC1` (centres unmarked) [Compound L319N47]: the pIC50 in assay [1] (pNPP at Km, pH 7.0, 25° C.) is 3.94; in assay [2], 3.84; in assay [3] it was 4.38; in assay [4], 3.85; in assay [5] it was less than 3.70; in assay [6], 4.30. Besides, the pIC50 in assay [7] is 3.74.

Take `O=C(C(c1ccccc1)S(=O)(=O)O)N1CCCC2CCCCC21` (centres unmarked) [Compound L319N53]: the pIC50 is less than 3.70 in assay [1] (pNPP at Km, pH 7.0, 25° C.); less than 3.70 in assay [2]; less than 3.70 in assay [3]; less than 3.70 in assay [4]; less than 3.70 in assay [5]; less than 3.70 in assay [6]. For the same compound, the pIC50 in assay [7] was less than 3.70.
